Source: patent publication US20240376109A1, “PYRAZOLO[1,5-A]PYRIMIDINE COMPOUND FOR THE TREATMENT OF DERMAL DISORDERS” (OTSUKA PHARMACEUTICAL CO., LTD., priority 2021, published 2024)

molecular target: T1, PAR2 (Homo sapiens, UniProt P55085); test: Intracellular calcium concentration measurement (SLIGKV-NH2-induced calcium change, Fluo-8, FDSS/μCELL); type: cell-based; details: HEK293 cells; SLIGKV-NH2 10 μM-induced intracellular calcium change; read-out: IC50
T1 construct: HEK293 cell lines derived from human embryonic kidney cultured in a MEM culture medium; endogenous in cells; host or cells: HEK293
T1 sequence (P55085 26-397): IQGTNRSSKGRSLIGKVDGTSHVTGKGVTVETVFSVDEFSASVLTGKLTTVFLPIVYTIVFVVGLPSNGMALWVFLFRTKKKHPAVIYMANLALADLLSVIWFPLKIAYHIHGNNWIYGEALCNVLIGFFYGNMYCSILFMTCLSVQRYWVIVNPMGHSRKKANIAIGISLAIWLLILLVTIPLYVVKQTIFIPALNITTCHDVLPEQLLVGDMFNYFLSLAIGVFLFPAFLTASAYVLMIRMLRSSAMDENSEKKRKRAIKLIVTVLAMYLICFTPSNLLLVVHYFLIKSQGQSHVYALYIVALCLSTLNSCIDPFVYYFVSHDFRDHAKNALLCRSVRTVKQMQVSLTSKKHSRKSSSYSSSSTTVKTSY

Point of comparison: `COC1CCN(C(=O)c2cc3nc(C45CC6CC(CC(C6)C4)C5)cc(C(F)(F)F)n3n2)C(C)(C)C1` (stereo not drawn) [Example 63], IC50 12 nM. Against it:
- CCCc1cc(CC2CCCCC2)nc2cc(C(=O)N3CCCCCC3)nn12 [Example 9, azepan-1-yl(5-(cyclohexylmethyl)-7-propylpyrazolo[1,5-a]pyrimidin-2-yl)methanone] — 6.2-fold higher, 74 nM
- Cc1cc(CC2CCC(C)CC2)nc2cc(C(=O)N3CCCCCC3)nn12 (stereo not drawn) [Example 20] — 2-fold higher, 24 nM
- CC1CCC(Cc2cc(C(C)C)n3nc(C(=O)N4CCCCCC4)cc3n2)CC1 (stereo not drawn) [Example 21] — 25-fold higher, 298 nM
- CC(C)c1cc(C23CC4CC(CC(C4)C2)C3)nc2cc(C(=O)N3CCCCCC3)nn12 [Example 22] — 11-fold higher, 137 nM
- CC(C)(C)c1cc(C23CC4CC(CC(C4)C2)C3)nc2cc(C(=O)N3CCCCCC3)nn12 [Example 23] — 2.5-fold higher, 30 nM
- CC1(C)CCCCN1C(=O)c1cc2nc(C34CC5CC(CC(C5)C3)C4)cc(C(F)(F)F)n2n1 [Example 24] — within 1.5-fold, 9 nM
- O=C(c1cc2nc(CC3CCCCC3)cc(C(F)(F)F)n2n1)N1CCCCCCC1 [Example 25] — 4.1-fold higher, 49 nM
- O=C(c1cc2nc(CC34CC5CC(CC(C5)C3)C4)cc(C(F)(F)F)n2n1)N1CCCCCC1 [Example 26] — 6.7-fold higher, 80 nM
- O=C(c1cc2nc(CC3CCCCC3)cc(C(F)(F)F)n2n1)N1CCCCCCCC1 [Example 27] — 12-fold higher, 138 nM
- CC(C)(C)c1cc(CC2CCCCC2)nc2cc(C(=O)N3CCCCCC3)nn12 [Example 28, azepan-1-yl-[7-tert-butyl-5-(cyclohexylmethyl)pyrazolo[1,5-a]pyrimidin-2-yl]methanone] — 5-fold higher, 60 nM
- O=C(c1cc2nc(CC3CCCCC3)cc(C3CCCC3)n2n1)N1CCCCCC1 [Example 29] — 39-fold higher, 467 nM
- CC1(C)CCCCN1C(=O)c1cc2nc(CC3CCCC3)cc(C(F)(F)F)n2n1 [Example 30] — 8.5-fold higher, 102 nM
- CC1(C)CCCCN1C(=O)c1cc2nc(CC3CCCCC3)cc(C(F)(F)F)n2n1 [Example 31] — 6.8-fold higher, 81 nM
- CCC(CC)c1cc(CC2CCCC2)nc2cc(C(=O)N3CCCCCC3)nn12 [Example 33] — 4.2-fold higher, 51 nM
- CC(C)c1cc(C2CCCCC2)nc2cc(C(=O)N3CCCCCC3)nn12 [Example 34] — 22-fold higher, 265 nM
- CCc1cc(CC2CCCCC2)nc2cc(C(=O)N3CCCCC3(C)C)nn12 [Example 35] — 11-fold higher, 130 nM
- O=C(c1cc2nc(CC3CCCCC3)cc(C3CC3)n2n1)N1CCCCCC1 [Example 36] — 31-fold higher, 369 nM
- CCC(C)c1cc(CC2CCCC2)nc2cc(C(=O)N3CCCCCC3)nn12 (stereo not drawn) [Example 38] — 8.5-fold higher, 102 nM
- CC(C)c1cc(CC2CCCCC2)nc2cc(C(=O)N3CCCCC3(C)C)nn12 [Example 39] — 5.3-fold higher, 64 nM
- CC(C)Cc1cc(CC2CCCCC2)nc2cc(C(=O)N3CCCCCC3)nn12 [Example 40] — 15-fold higher, 184 nM
- O=C(c1cc2nc(CC3CCCC3)cc(C(F)(F)F)n2n1)N1CCCCCCCC1 [Example 41] — 20-fold higher, 246 nM
- COC1CCN(C(=O)c2cc3nc(CC4CCCCC4)cc(C(C)C)n3n2)C(C)(C)C1 (stereo not drawn) [Example 42] — 3.3-fold higher, 40 nM
- CC(C)(C)c1cc(C2CCCCC2)nc2cc(C(=O)N3CCCCCC3)nn12 [Example 43] — 15-fold higher, 185 nM
- CCCCCc1cc(CC2CCCCC2)nc2cc(C(=O)N3CCCCCC3)nn12 [Example 44] — 17-fold higher, 208 nM
- CC(C)c1cc(CC2CCC2)nc2cc(C(=O)N3CCCCCC3)nn12 [Example 45] — 53-fold higher, 632 nM
- CC(C)c1cc(CC2CCCCCC2)nc2cc(C(=O)N3CCCCCC3)nn12 [Example 46] — 8.2-fold higher, 99 nM
- CCC(C)c1cc(CC2CCCCC2)nc2cc(C(=O)N3CCCCCC3)nn12 (stereo not drawn) [Example 47] — 12-fold higher, 146 nM
- CCC(CC)c1cc(CC2CCCCC2)nc2cc(C(=O)N3CCCCCC3)nn12 [Example 48] — 8.8-fold higher, 105 nM
- CC(C)c1cc(CC2CCCCCC2)nc2cc(C(=O)N3CCCCC3(C)C)nn12 [Example 49] — 9.9-fold higher, 119 nM
- CC(C)c1cc(CC2CCCCC2)nc2cc(C(=O)N3CCSCC3(C)C)nn12 [Example 50] — 3.6-fold higher, 43 nM
- CC(C)c1cc(CC2CCCC2)nc2cc(C(=O)N3CCCCCCC3)nn12 [Example 51] — 17-fold higher, 209 nM
- CC(C)c1cc(CC2CCCCC2)nc2cc(C(=O)N3CCCCCCC3)nn12 [Example 52] — 8.9-fold higher, 107 nM
- O=C(c1cc2nc(C3CCC(F)(F)CC3)cc(C(F)(F)F)n2n1)N1CCCCCC1 [Example 56] — 24-fold higher, 283 nM
- CC1(c2cc(C(F)(F)F)n3nc(C(=O)N4CCCCCC4)cc3n2)CCCCC1 [Example 57] — 26-fold higher, 308 nM
- CCCCC1CCC(c2cc(C(F)(F)F)n3nc(C(=O)N4CCCCCC4)cc3n2)CC1 (stereo not drawn) [Example 58] — 39-fold higher, 464 nM
- O=C(c1cc2nc(C3CCCCCC3)cc(C(F)(F)F)n2n1)N1CCCCCC1 [Example 60] — 20-fold higher, 234 nM
- CC1(C)CCCCCN1C(=O)c1cc2nc(C34CC5CC(CC(C5)C3)C4)cc(C(F)(F)F)n2n1 [Example 61] — 8-fold higher, 96 nM
- CC1(C)COCCN1C(=O)c1cc2nc(C34CC5CC(CC(C5)C3)C4)cc(C(F)(F)F)n2n1 [Example 62] — 4.3-fold higher, 52 nM
- CC(C)c1cc(C23CC4CC(CC(C4)C2)C3)nc2cc(C(=O)N3CCC(O)CC3(C)C)nn12 (stereo not drawn) [Example 64] — within 1.5-fold, 17 nM
- CC1(C)COCCN1C(=O)c1cc2nc(CC3CCCCC3)cc(C(F)(F)F)n2n1 [Example 66] — 20-fold higher, 241 nM
- CC1(C)CSCCN1C(=O)c1cc2nc(C3CCCC3)cc(C(F)(F)F)n2n1 [Example 67] — 14-fold higher, 174 nM
- CCC(CC)c1cc(CC2CCCC2)nc2cc(C(=O)N3CCCC(=O)C3(C)C)nn12 [Example 68] — within 1.5-fold, 15 nM
- CCCCCCc1cc(CC2CCCCC2)nc2cc(C(=O)N3CCCCCC3)nn12 [Example 69] — 24-fold higher, 286 nM
- CCC(CC)c1cc(CC2CCCCC2)nc2cc(C(=O)N3CCC(O)CC3(C)C)nn12 (stereo not drawn) [Example 73] — 2.8-fold higher, 33 nM
- CC(C)c1cc(CCC2CCCCC2)nc2cc(C(=O)N3CCSCC3(C)C)nn12 [Example 74] — 32-fold higher, 386 nM
- CCC(C)c1cc(CC2CCCC2)nc2cc(C(=O)N3CCCCC3(C)C)nn12 (stereo not drawn) [Example 75] — 7.4-fold higher, 89 nM
- CC(C)c1cc(CC2CCCCC2)nc2cc(C(=O)N3CCOCC3(C)C)nn12 [Example 76] — 10-fold higher, 121 nM
- CC(F)(F)c1cc(CC2CCCCC2)nc2cc(C(=O)N3CCCCCC3)nn12 [Example 77] — 23-fold higher, 273 nM
- CCC(C)c1cc(CC2CCCC2)nc2cc(C(=O)N3CCCCCCC3)nn12 (stereo not drawn) [Example 78] — 21-fold higher, 247 nM
- CCC(CC)c1cc(CC2CCCC2)nc2cc(C(=O)N3CCCCCCC3)nn12 [Example 79] — 12-fold higher, 145 nM
- CC(C)c1cc(CC2CCCC2)nc2cc(C(=O)N3CCC=CCC3)nn12 [Example 80] — 21-fold higher, 250 nM
- CC(C)c1cc(CC2CCCCC2)nc2cc(C(=O)N3CCC=CCC3)nn12 [Example 81] — 20-fold higher, 246 nM
- O=C(c1cc2nc(C3C4CC5CC(C4)CC3C5)cc(C(F)(F)F)n2n1)N1CCCCCC1 (stereo not drawn) [Example 84] — 23-fold higher, 274 nM
- O=C(c1cc2nc(C34CCC(CC3)CC4)cc(C(F)(F)F)n2n1)N1CCCCCC1 [Example 85] — 26-fold higher, 310 nM
- CC(C)c1cc(COC2CCCC2)nc2cc(C(=O)N3CCCCC3(C)C)nn12 [Example 86] — 28-fold higher, 338 nM
- CC(C)c1cc(CC2CCCCC2)nc2cc(C(=O)N3CCCCCO3)nn12 [Example 91] — 44-fold higher, 522 nM
- CC(C)c1cc(C(C)C2CCCCC2)nc2cc(C(=O)N3CCCCCC3)nn12 (stereo not drawn) [Example 93] — 20-fold higher, 236 nM
- O=C(c1cc2nc(N3CCCCC3)cc(C(F)(F)F)n2n1)N1CCCCCC1 [Example 95] — 62-fold higher, 742 nM
- CC1(C)C(=O)CCCN1C(=O)c1cc2nc(C34CC5CC(CC(C5)C3)C4)cc(C(F)(F)F)n2n1 [Example 96] — within 1.5-fold, 10 nM
- CC(C)c1cc(C23CC4CC(CC(C4)C2)C3)nc2cc(C(=O)N3CCCC(O)C3(C)C)nn12 (stereo not drawn) [Example 97] — 1.7-fold higher, 20 nM
- CC(C)c1cc(CC2(C)CCCCC2)nc2cc(C(=O)N3CCCCCC3)nn12 [Example 98] — 22-fold higher, 270 nM
- Cc1cc(CC2CCCCC2)nc2cc(C(=O)N3CCCCC3(C)C)nn12 [Example 99] — 28-fold higher, 336 nM
- CC1(C)C(O)CCCN1C(=O)c1cc2nc(C34CC5CC(CC(C5)C3)C4)cc(C(F)(F)F)n2n1 (stereo not drawn) [Example 100] — 1.9-fold higher, 23 nM
- CC(C)(C)c1cc(C23CC4CC(CC(C4)C2)C3)nc2cc(C(=O)N3CCNCC3(C)C)nn12 [Example 101] — 5.8-fold higher, 70 nM
- CC1(C)CC(O)CCN1C(=O)c1cc2nc(C34CC5CC(CC(C5)C3)C4)cc(C(F)(F)F)n2n1 (stereo not drawn) [Example 102] — 3.1-fold higher, 37 nM
- CC(C)c1cc(CC2CCCC2)nc2cc(C(=O)N3CCCC(=O)C3(C)C)nn12 [Example 103] — 5.2-fold higher, 63 nM
- CCC(CC)c1cc(CC2CCCC2)nc2cc(C(=O)N3CCCC(O)C3(C)C)nn12 (stereo not drawn) [Example 104] — 3.8-fold higher, 46 nM
- CCC(CC)c1cc(CC2CCCC2)nc2cc(C(=O)N3CCC(O)CC3(C)C)nn12 (stereo not drawn) [Example 106] — 8-fold higher, 96 nM
- CC(C)c1cc(CC2CCCCC2)nc2cc(C(=O)N3CCCC(C)(O)C3(C)C)nn12 (stereo not drawn) [Example 107] — 5.6-fold higher, 67 nM
- CC1(C)CSCCN1C(=O)c1cc2nc(CC3CCCC3)cc(C(F)(F)F)n2n1 [Example 108] — 6.5-fold higher, 78 nM
- CC1CCC(Cc2cc(C(C)C)n3nc(C(=O)N4CCCCC4(C)C)cc3n2)CC1 (stereo not drawn) [Example 109] — 7.1-fold higher, 85 nM
- CC1(C)C(O)CCCN1C(=O)c1cc2nc(C3CCCCC3)cc(C(F)(F)F)n2n1 (stereo not drawn) [Example 111] — 21-fold higher, 250 nM

same assay, conditions: IC50 (nM)

Point of comparison: `O=C(c1cc2nc(NC34CC5CC(CC(C5)C3)C4)cc(C(F)(F)F)n2n1)N1CCCCCC1` [Example 82], IC50 76 nM. Against it:
- CCCN(CCC)c1cc(CC2CCCCC2)nc2cc(C(=O)N3CCCCCC3)nn12 [Example 89, azepan-1-yl-[5-(cyclohexylmethyl)-7-(dipropylamino)pyrazolo[1,5-a]pyrimidin-2-yl]methanone] — 3.2-fold higher, 243 nM
